According to a melting point compilation (Tetko et al.; mined from patent text by program, amines drawn as free bases though some values may be those of a salt):

Row | melting point | Compound
1 | 134 to 135 °C | CCOC(=O)c1nc(N)sc1C(=O)CC
2 | 53 °C | CC(I)CC(F)(F)C(F)(F)C(F)(F)C(F)(F)C(F)(F)C(F)(F)CC(C)I (configuration not stated)
3 | 286 to 289 °C | N#CC1=C(c2ccccc2)Nc2ccccc2S1(=O)=O
4 | 223 °C | CCc1ccnc(C(=O)c2[nH]c3ccc(OC(F)(F)F)cc3c2CC(=O)O)c1
5 | 138 °C | O=Cn1cc(Cl)c(-c2cccc(Cl)c2[N+](=O)[O-])c1
6 | 80.2 to 102 °C | CCCCCN(CCC12CC3CC(CC(C3)C1)C2)C(=O)NCCCc1ccnc2ccccc12
7 | 52 to 55.6 °C | Cc1ccc(Nc2ccnc(-n3nc(C)cc3C)n2)cc1
8 | 71 to 72 °C | CC(C)[C@H](N)C(c1ccccc1)c1ccccc1
9 | 183 to 185 °C | O=C1N(C(c2ccccc2)c2ccccc2)c2ccccc2C12COc1cc3c(cc12)OCCO3 (configuration not stated)
10 | 138 to 140 °C | Cc1ccc2ccc(O)c(CC(=O)O)c2c1
11 | 197 to 199 °C | CCCCc1nc2c(N)nc3ccccc3c2n1OC
12 | 100 to 102 °C | CC(C)Nc1ccc(NC(=O)C2(C)CC2)cc1C(F)(F)F
13 | 195 to 196 °C | Clc1ccc2[nH]c(-c3ccccc3)cc2c1
14 | 272 to 274 °C | Nn1c2c(c3ccccc3c1=O)C(=O)c1ccccc1-2
15 | 70 °C | C=CCC1C2CCC(C2)C1NC(=O)OCc1ccccc1 (configuration not stated)
16 | > 300 °C | CCOC(=O)N1CCN(c2ccc3nc4[nH]c(=O)[nH]c4cc3c2)CC1
17 | 211 to 212 °C | COc1cc2ncnc(N3CCN(C(=O)NCc4ccc(Br)cc4)CC3)c2cc1OC
18 | 264 to 266 °C | C=CCC(CC=C)(CC=C)c1ccc(-c2nc3cc(C#N)c(C#N)cc3[nH]2)cc1
19 | 143 to 144 °C | NC(=O)N(O)CC1CCCCC1

Row | melting point | Compound
20 | 63 to 65 °C | CCOC(=O)C(=CNC1CC1)C(=O)c1cc(F)c(F)c(F)c1F
21 | 91 to 93 °C | CCCC(=O)NCCc1c[nH]c2ccc3c(c12)CCCO3
22 | 125 to 126 °C | CCCCNC(=O)c1nc2ccc(OC)cc2[nH]1
23 | 68 °C | O=C(NCC(F)(F)F)C1(CCCCN2CCN(c3ccc4cccc(Cl)c4n3)CC2)c2ccccc2Oc2ccccc21
24 | 190 to 193 °C | NCCCCCCCCC(=O)O
25 | 117 °C | C=CCc1c(C(F)(F)F)[nH]n(-c2ccc(Br)c(Cl)c2)c1=O
26 | 203 °C | c1ccc(OCCNc2nc(Nc3cc(C4CC4)n[nH]3)c3ccccc3n2)cc1
27 | 138 °C | C/C(=C\c1ccc(OC(C)C)cc1Oc1ncc(C(F)(F)F)cc1Cl)C(=O)NS(=O)(=O)NCCOC(C)C
28 | 84.3 °C | C=CCC(C#N)(C#N)Cc1ccc(OCC)cc1
29 | 146 to 148 °C | O=c1c2ccccc2n(Cc2ccccc2)n2cccc12
30 | 237 to 239 °C | Nc1cc(N)c(-c2ccc([N+](=O)[O-])cc2-c2cccc(Cl)c2Cl)cn1
31 | 186 to 188 °C | Cc1ccc(C(CC(=O)O)C(=O)O)s1 (configuration not stated)
32 | 260 to 261 °C | Cc1cccc(Nc2n[nH]c(N=CN(C)C)c2C#N)c1
33 | 200 to 201 °C | CNC(=O)c1cc(C)c(C(c2cc(F)ccc2F)S(=O)(=O)c2ccc(Cl)cc2)cn1 (configuration not stated)
34 | 164 to 165 °C | CC(C)(C)[Si](C)(C)Oc1ccc(CCNc2ncnc3nccnc23)cc1
35 | 162 to 164 °C | CC(C)(C)OC(=O)NC1CCCCCC=CC2CC2(C(=O)NS(=O)(=O)C2CC2)NC(=O)C2CC(OC(=O)c3ccc(-c4ccccc4)cc3)CN2C1=O (configuration not stated)
36 | 77 to 79 °C | CCCCC(Oc1ccc(C#N)cc1C=O)C(=O)OC (configuration not stated)
37 | 122 to 124 °C | Nc1ccc(-c2ccc(N)cc2C(=O)OCCCCCCOc2ccc(-c3ccccc3)cc2)c(C(=O)OCCCCCCOc2ccc(-c3ccccc3)cc2)c1

More lines, now with the values behind:

Row | Compound | melting point
38 | COc1ccc(S(=O)(=O)C(CCCCc2ccccc2)C(=O)O)cc1OC (configuration not stated) | 114 to 116 °C
39 | CC(Oc1ncn(-c2ccc(Br)cc2)n1)C(=O)O (configuration not stated) | 195 to 197 °C
40 | CC1CN(Cc2ccccc2)CC1=NO (configuration not stated) | 85 to 94 °C
41 | CCC[C@H](NC(=O)CNC)C(=O)N[C@@H](CCCNC(=N)N)C(=O)N[C@@H](C)P(=O)(O)O | 200 °C
42 | O=[N+]([O-])C(CO)(CO)CCc1ccc(Sc2cccc(OCc3ccccc3)c2)cc1Cl | 69 to 70 °C
43 | CSCCS(=O)(=O)NCCCc1ccc(-c2ccc(=O)[nH]n2)cc1 | 173 to 174 °C
44 | N=C(Nc1cccc(NC(=O)/C=C/c2ccccc2Cl)c1)c1ccccc1 | 262 to 264 °C
45 | O=C(CCl)Oc1ccccc1CCC1SCCN1C(=O)CCl (configuration not stated) | 88 to 89 °C
46 | C=C(C)C(=O)NCCCNc1nc(Cl)nc(Cl)n1 | 138 to 140 °C
47 | O=c1[nH]c2cc(Cl)ccc2c(O)c1Sc1ccc([N+](=O)[O-])cc1 | > 300 °C
48 | COC(=O)c1cc(I)ccc1N(C)S(C)(=O)=O | 105 to 106 °C
49 | CCOC(=O)CNc1ccc(Cl)c(Cl)c1 | 103 to 104 °C
50 | CC(=O)c1cccc2c1NCC2 | 83 to 85 °C
51 | CSc1ccc(C(N)=S)cc1 | 176 to 178 °C
52 | OCc1cc2cc(Cl)cc(Br)c2o1 | 123 to 126 °C
53 | CCOC(=O)C1=C(COCCn2c(C)nc3ccccc32)NC2=C(C(=O)C(C)(C)CC2)C1c1ccccc1Cl (configuration not stated) | 118 to 120 °C
54 | CCOC(=O)CCC1CCN(C(=O)[C@H](C)NC(=O)c2ccc(C(O)=NN)cc2)CC1 | 194 to 195 °C
55 | CCOC(=O)c1ccc(NC(=O)c2ccc(OC)c(OC)c2)c2ccccc12 | 144 to 146 °C
56 | N#Cc1ccc(NC(=S)Nc2ccc(NNC=O)cc2)cc1 | 180 to 182 °C
57 | Nc1cc(F)c(N2CCNCC2)cc1Cl | 110 °C
58 | Cn1cc(C(O)(c2ccc3c(cnn3C(=O)c3ccccc3)c2)C(F)(F)F)c2ccccc21 (configuration not stated) | 102 to 103 °C
59 | O=C(O)c1ccc2nc(-n3nc4c(c3O)-c3ccccc3CC4)sc2c1 | > 280 °C

Row | Compound | melting point
60 | O=c1cc(-c2ccc3[nH]ncc3c2)oc2ncc(CN3CCOCC3)cc12 | 293 °C
61 | CCCC(CCC)n1c(CC)nc2c1C(=O)N(C)CN2c1ccc(Cl)cc1Cl | 117 to 118 °C
62 | Cc1ccc(C(=O)NC(NC(=S)Nc2cccc(C(F)(F)F)c2F)C(F)(F)F)cc1 (configuration not stated) | 179 to 181 °C
63 | O=C1NCC(Cc2cccc(F)c2)O1 (configuration not stated) | 77 to 78 °C
64 | OCCOc1cccc(-n2ccnc2)c1 | 81 to 83 °C
65 | COC(=O)C(CO)N(Cc1ccc(Cl)cc1N)S(=O)(=O)c1ccc(OC)cc1 (configuration not stated) | 99 to 112 °C
66 | CC1OCC(C)n2c1nc1c(N)nc3ccccc3c12 (configuration not stated) | 218 to 223 °C
67 | Cc1cc(-n2ccc(OCCc3ccccc3)cc2=O)sc1C(=O)NCc1ccccc1 | 159 to 160 °C
68 | CCOC(=O)c1cnc(CCOC)nc1NCc1ccc(-c2ccccc2-c2nnnn2C(c2ccccc2)(c2ccccc2)c2ccccc2)cc1 | 128 to 130 °C
69 | CC1(C)OCCN1c1nc(-c2ccc(C#N)cc2)cs1 | 108 to 111 °C
70 | CN1CCN(C(=O)c2cc(N)cc3c2OCCO3)CC1 | 170 °C
71 | CC(=O)NCC1OCC(Cc2ccc(Cl)cc2)CO1 (configuration not stated) | 95 °C
72 | CC(C)(C)OC(=O)NC1Cc2ccccc2CC1=O (single isomer, unassigned; (+)) | 76 °C
73 | CC(C)(C)OC(=O)N1CC(CCl)c2c1cc(NC(=O)OCC1c3ccccc3-c3ccccc31)c1ccccc21 (configuration not stated) | 103 to 106 °C
74 | CN(C)C1(Cc2ccccc2)CC=C(c2c[nH]c3ncccc23)CC1 (configuration not stated) | 222 to 225 °C
75 | CCC(=CC(N)C(=O)O)CP(=O)(O)O (configuration not stated) | 176 °C
76 | c1ccc2c(c1)nc(-c1ccc3c(c1)OCO3)n2CC1CCCCC1 | 100 to 102 °C
77 | O=C1CCC2(CC1)Cc1ccccc1C2 | 91 to 94 °C
78 | N#Cc1c[nH]c(-c2ccccc2)c1C#N | 197 to 200 °C
79 | COC(=O)c1ccc(C(=O)/C=C/c2cc(-c3cc4ccccc4s3)c(OC)cc2OC)cc1 | 149 to 151 °C
80 | CC(C)CCC(=O)OC1c2ccccc2C(=O)N1c1ccc2ccc(Cl)nc2n1 (configuration not stated) | 147 °C
81 | Cc1oc2c(C)c(C)c(NC(=O)c3ccc(F)cc3)c(C)c2c1-c1ccccc1 | 242 to 245 °C

Row | Compound | melting point
82 | Cc1c(Cl)cc(C(C)(C)C)c(O)c1C(=O)Oc1ccccc1 | 68 to 69 °C
83 | O=C1Nc2ccc([N+](=O)[O-])cc2C12OCCCO2 | 155 to 168 °C
84 | CCSc1snc(OCOCC#CI)c1C#N | 57 to 58 °C
85 | CCCCCCCCCCCCCCCCCCNC(=O)OCC(CO)NC(=O)OC (configuration not stated) | 84 to 85 °C
86 | c1ccc(C(CCOc2ccc(CCC3=NCCO3)cc2)(c2ccccc2)c2ccccc2)cc1 | 130 to 131 °C
87 | Cc1ccc(S(=O)(=O)NC(=O)OCCc2ccc(-n3c(CCC(=O)N4CCCC4)nc4cc(C(F)(F)F)c(Cl)cc43)cc2)cc1 | 98 to 105 °C
88 | CC(=O)Nc1ccc(C(=O)O)cc1NC(=O)CO | 214 to 215 °C
89 | COc1cc(NC(=O)OC(C)(C)C)c([N+](=O)[O-])cc1C#Cc1ccccc1 | 129 °C
90 | CC(C#CC1CCC1)N(O)C(N)=O (configuration not stated) | 144 to 145 °C
91 | S=C(Nc1ccc(Sc2ccc3ccccc3n2)cc1)Nc1ccc(Cl)c(Cl)c1 | 125 to 126 °C
92 | CC(O)CNc1nc(C2C(=O)Nc3ccc(Br)cc32)c2cn(C)nc2n1 (configuration not stated) | 298 to 301 °C
93 | CCOC(=O)c1noc(-c2ccc([N+](=O)[O-])cc2)n1 | 75 to 77 °C
94 | CCOc1cc2c(Nc3cc(OC)c(Cl)cc3Cl)c(C#N)cnc2cc1F | 184 to 186 °C
95 | CC(CCCC(C)(C)O)C1CCC2C3CC=C4CCCC(O)C4(C)C3CCC12C (configuration not stated) | 127 to 128 °C
96 | CCCc1nc2c(N)nc3ccccc3c2n1OC | 210 to 211 °C
97 | C=CCSCCON=C(C(=O)OCC)c1csc(NC=O)n1 | 62 to 64 °C
98 | COc1ccc2c(c1)c(CC(=O)OCC(=O)O)c(C)n2C(=O)c1ccc(F)c(F)c1 | 128 to 129 °C
99 | Cc1cccc(C)c1N1CC(C)N(c2c(C)cccc2C)C1=NC(=O)C(F)(F)F (configuration not stated) | 232 to 235 °C
100 | C=Cn1c2ccccc2c2cc(Br)ccc21 | 74 to 74.5 °C
101 | CCOC(=O)c1c(N2CCN(C(=O)c3cccs3)CC2)c2cscc2[nH]c1=O | 282 °C
102 | CCn1cc(-c2ccccc2)c(=O)c(-c2ccccc2)c1 | 171 °C
